We go through 5 molecules from patent US20120128667A1 (ONCOZYME PHARMA INC., priority 2009, published 2012).

SMILES strings stand for the structures. Several values for one entry are separate records, joined by “and”; a condition that tells them apart may be missing. Identical values can stand only once. Entries after “also recorded” stand apart in the source; their conditions may differ. Like-named read-outs stand apart in the source and are kept apart here.

Data set [1] has as its system MCF-7 (breast cancer (adenocarcinoma, pleural effusion)). The data set can be described thus: cells. Particulars: for Percentage of cells killed: MCF7; for CC50: Homo sapiens. Here is the method: (§1) Cell Survival-MTT assay: The MTT (3-[4,5-Dimethylthiazol-2-yl]-2,5 diphenyl tertrazolim bromide) method of determining cell growth/cytotoxicity was used to determine cell survival. MTT is a tetrazolium salt that binds to b mitochondrial dehydrogenases of living cells. Binding converts yellow, water soluble MTT to an insoluble, purple formazan crystal. The crystals are solubilized with a 50% N,N-dimethylformamide (vol/vol), 20% SDS (wt/vol) solution (pH 4.7), and absorbance is determined at a wavelength of 570 nm. Unbound MTT is not detectable at this wavelength. The amount of bound MTT measured in the assay is proportional to the number of live cells present. (Niks and Otto 1990: “Towards an optimized MTT assay,” J. Immunol. Methods. 130, 149-151, Hussain et al. 1993; “A new approach for measurement of cytotoxicity using colorimetric assay,” J. Immunol. Methods. 160, 89-96).
(§2) Cells were harvested from cell cultures using the standard protocol (Trypsin/EDTA). The cells (1000 to 5000 cells in 50 μl of solution depending on cell type used) were then plated and incubated overnight at 37° C. before the addition of the agent or combination of agents.) After 2 days of incubation at 37° C., 10 μl of a 5 mg/ml solution of MTT was then added to all the wells and to a media control well. The plates were further incubated for 4 hours. A 100 μl of MTT solubilization buffer was added and the plates were incubated overnight at 37° C. The plates were then read on the ELISA plate reader with absorbance at 570 nm and a reference at 630 nm.
(§3) The effects of combinations were tested on three representative cancer cell lines: H661 (lung cancer (carcinoma)), MCF-7 (breast cancer (adenocarcinoma, pleural effusion)), and HT29 (colon cancer (adenocarcinoma, primary tumor)). Initial assays were carried out to determine the concentrations at which taxol, oxaliplatin, gemcitabine, or CPT 11 (also known as irinotecan) killed approximately 10% of the cells under investigation.

In data set [2] the test system is HT29 (colon cancer (adenocarcinoma, primary tumor)). Description: cells. Particulars: for Percentage of cells killed: HT29; for CC50: Homo sapiens. Here is the method: as §1, §2, §3
The subject of data set [3] is H661 (lung cancer (carcinoma)). The data set can be described thus: cells. The settings on record: for Percentage of cells killed: H661; for CC50: Homo sapiens. Here is the method:
as §1, §2, §3

The conditions of data set [4]: injected slowly into patients; cited from earlier work.
The conditions of data set [5]: repeated dosing; cited from earlier work.
In data set [6] the test system is BxPC3 human pancreas xenograft. The settings on record: IP bi-weekly; Pentamidine 45 mg/kg, Gemcitabine 150 mg/kg.
Experimental: BxPC3 cells were transplanted subcutaneously into the flank of each animal as a suspension of tumor cells (5×10^6 cells in 0.1 mL in PBS) on Jan. […] Transplantation was performed under a laminar airflow hood. […] Animals were labeled using the “ear punching” method so that for each group, all 10 animals could be distinguished. Each group of 10 mice was housed in 2 separate cages of 5 mice each; animal numbers 1 to 5 were housed in Cage A and animal numbers 6 to 10 were housed in Cage B.
Prior to every dosing injection, each animal was weighed and received their respective formulations. […] Mice in group 3 were treated intraperitoneally, bi-weekly (Tuesday-Friday) at 150 mg/kg with Gemcitabine for eleven weeks. […] The dose volume was 30 mL/kg for mice treated intraperitoneally.
At termination, when the tumor volume of one of the mice in the group reached 1500 mm^3, the whole group was sacrificed, and animals were anaesthetized using isoflurane and sacrificed by cervical dislocation.
In data set [7] the test system is metastatic colorectal cancer (mCRC). Description: Phase I/II trial of pentamidine with chemotherapy in previously treated mCRC (Example 5). In kind it is in vivo, human.
Another data set relates to metastatic colon cancer. Description: Phase I/IIa clinical trial colon cancer (Example 3). In kind it is in vivo, human. Particulars: interim results; I.V. pentamidine Day -2 and Day -1 before chemotherapy cycle. An excerpt: (FOLFOX regimens contain oxaliplatin, FOLFIRI regimens contain CPT 11 also known as Irinotecan; and IROX regimens contain Irinotecan and Oxaliplatin). Patients may also receive bevacizumab (Avastin) as part of chemotherapy or cetuximab (Erbitux) or panitumumab (Vectibix). Twenty-two patients are enrolled to date.
A further dose is being given on Day −1.
Both dose escalation and treatment with pentamidine alone are at the discretion of the treating physician.
Almost all patients will have previously failed on their current treatment or a combination thereof.

The mark [8] stands for this setting: 13 evaluable pts, first 2 cycles.
Where [9] appears, read: 13 evaluable pts, pentamidine before CTX.
The mark [10] stands for this setting: per patient, NCI CTCAEv3, pentamidine + CTX.
Where [11] appears, read: preliminary analysis, pentamidine + CTX.

Regarding `Nc1ccn([C@@H]2O[C@H](CO)[C@@H](O)C2(F)F)c(=O)n1` [Gemcitabine, gemcitabine], the “Percentage of cells killed” value in data set [1] (Gemcitabine 0.26 μM alone) was determined as 23%; in data set [2] (Gemcitabine 0.26 μM alone), 23%; in data set [3] (Gemcitabine 0.26 μM alone), 25%.

As to `N.N.[Cl][Pt][Cl]` [Cis-platinum], the urinary excretion in data set [4] is ≤ 75%.

On to `O=C1[O][Pt]2([NH][C@@H]3CCCC[C@H]3[NH]2)[O]C1=O` [Oxaliplatin, oxaliplatin], for which the entries for the “Percentage of cells killed” value in data set [1] (Oxaliplatin 0.25 μM alone), in data set [2] (Oxaliplatin 0.25 μM alone) and in data set [3] (Oxaliplatin 0.25 μM alone) were 8%, 10% and 14%, respectively.

As to `CCc1c2c(nc3ccc(OC(=O)N4CCC(N5CCCCC5)CC4)cc13)-c1cc3c(c(=O)n1C2)COC(=O)[C@]3(O)CC` [CPT-11, camptothecin-11], the “Percentage of cells killed” value in data set [1] (CPT-11 3.2 μM alone) amounted to 30%; in data set [2] (CPT-11 3.2 μM alone), 6%; in data set [3] (CPT-11 3.2 μM alone), 14%.

Take `N=C(N)c1ccc(OCCCCCOc2ccc(C(=N)N)cc2)cc1` [Pentamidine]: the “time after final dose at which pentamidine was detected in tissue” value in data set [5] was 25 days. The “effect in the treatment of pancreatic cancer (tumor growth, FIG. 3)” value in data set [6] is reported as “beneficial effect”. In data set [7] (setting [8]), the “DLT anorexia, share of pts” value amounted to 8% and the “DLT hyperglycaemia, share of pts” value is on record as 8%. In addition, in data set [7] (setting [9]), the “Grade 3/4 AEs attributed to pentamidine: hyperglycaemia” value amounted to 23% and the “Grade 3/4 AEs attributed to pentamidine: hyperlipasemia” value is 15%. The “activity in mCRC that has progressed on standard lines of treatment (in words)” value in data set [7] (Pentamidine & CTX) is “disease stabilizing activity”. For the same molecule, in data set [7] (initial 17 pts), the “Reason for exiting the trial: Fatigue” value turned out to be 12%; the “Reason for exiting the trial: Fatigue, number of pts” value worked out at 2; the “Reason for exiting the trial: PD” value is recorded as 35%; the “Reason for exiting the trial: PD, number of pts” value is 6. In data set [7] (initial 17 pts), the “Reason for exiting the trial: Toxicity attributed to pentamidine” value worked out at 18%; the “Reason for exiting the trial: Toxicity attributed to pentamidine, number of pts” value was 3; the “Response at patient exit from trial: CR” value was found to be 0%; the “Response at patient exit from trial: CR, number of pts” value worked out at 0. In data set [7] (initial 17 pts), the “Response at patient exit from trial: PD” value is reported as 47%; the “Response at patient exit from trial: PD, number of pts” value is on record as 8; the “Response at patient exit from trial: PR” value was 0%; the “Response at patient exit from trial: PR, number of pts” value is reported as 0. Further, in data set [7] (initial 17 pts), the “Response at patient exit from trial: SD” value is given as 35% and the “Response at patient exit from trial: SD, number of pts” value is 6. In data set [7] (initial 17 pts, RECIST), the “Best response during treatment: CR” value was found to be 0%; the “Best response during treatment: CR, number of pts” value was 0; the “Best response during treatment: PD” value came to 24%; the “Best response during treatment: PD, number of pts” value is reported as 4. Further, in data set [7] (initial 17 pts, RECIST), the “Best response during treatment: PR” value is 6%; the “Best response during treatment: PR, number of pts” value is 1; the “Best response during treatment: SD” value was 59%; the “Best response during treatment: SD, number of pts” value is reported as 10. For the same molecule, in data set [7] (per patient), the “Attribution to Pentamidine: Anorexia” value is recorded as “possibly”; the “Attribution to Pentamidine: Diarrhea” value was “No (2×) and possibly”; the “Attribution to Pentamidine: Elevated Lipase” value is listed as “posssibly; also recorded: definitely”; the “Attribution to Pentamidine: Fainting/syncope” value was “No”. Further, in data set [7] (per patient), the “Attribution to Pentamidine: General deterioration” value is listed as “No”, the “Attribution to Pentamidine: Hand-foot reaction” value is recorded as “No”, the “Attribution to Pentamidine: Neutropenia” value is on record as “possibly” and the “Attribution to Pentamidine: Urinary tract infection” value was “No”. Moreover, in data set [7] (setting [10]), the “AE Grade: Anorexia” value was determined as 3, the “AE Grade: Diarrhea” value amounted to 3, the “AE Grade: Elevated Lipase” value came out at 3 and the “AE Grade: Fainting/syncope” value is listed as 3. Further, in data set [7] (setting [10]), the “AE Grade: General deterioration” value is on record as 4, the “AE Grade: Hand-foot reaction” value turned out to be 3, the “AE Grade: Neutropenia” value was 3 and the “AE Grade: Urinary tract infection” value stood at 3. The “toxicity of pentamidine with CTX (in words)” value in data set [7] (preliminary analysis) is listed as “consistent with known side effects of pentamidine; also recorded: manageable”. For the same molecule, in data set [7] (setting [11]), the “Median OS time” value is listed as “has not yet been reached” and the “median PFS time” value worked out at 4.4 months. Further, the CC50 in data set [1] (MCF7, 48 h, read-out: LC50 of Pentamidine) is 150 µM. In data set [1] (MCF7, read-out: LC50 of Pentamidine With CPT11 (0.25 μM)), the CC50 stood at 26 µM. Besides, the CC50 in data set [1] (MCF7, read-out: LC50 of Pentamidine With Gemcitabine (0.26 μM)) amounted to 66 µM. Further, the CC50 in data set [1] (MCF7, read-out: LC50 of Pentamidine With Oxaliplatin (0.25 μM)) was determined as 9 µM. In addition, the CC50 in data set [1] (MCF7, read-out: LC50 of Pentamidine with Taxol (2 μM)) came out at 60 µM. For the same molecule, the “Percentage of cells killed” value in data set [1] (Pentamidine 0.15 mM alone) came out at 50%. The “Percentage of cells killed” value in data set [2] (Pentamidine 0.15 mM alone) was found to be 13%. Moreover, in data set [2] (HT-29, 48 h, read-out: LC50 of Pentamidine), the CC50 stood at 270 µM. The CC50 in data set [2] (HT-29, read-out: LC50 of Pentamidine With CPT11 (0.25 μM)) stood at 12 µM. Also, in data set [2] (HT-29, read-out: LC50 of Pentamidine With Gemcitabine (0.26 μM)), the CC50 came to 30 µM. The CC50 in data set [2] (HT-29, read-out: LC50 of Pentamidine With Oxaliplatin (0.25 μM)) came to 9 µM. The CC50 in data set [2] (HT-29, read-out: LC50 of Pentamidine with Taxol (2 μM)) was determined as 130 µM. Also, in data set [3] (Pentamidine 0.15 mM alone), the “Percentage of cells killed” value is given as 50%. Besides, the CC50 in data set [3] (NCI-H661, 48 h, read-out: LC50 of Pentamidine) worked out at 150 µM. In addition, in data set [3] (NCI-H661, read-out: LC50 of Pentamidine With CPT11 (0.25 μM)), the CC50 is 3 µM. Also, in data set [3] (NCI-H661, read-out: LC50 of Pentamidine With Gemcitabine (0.26 μM)), the CC50 was 27 µM. Also, the CC50 in data set [3] (NCI-H661, read-out: LC50 of Pentamidine With Oxaliplatin (0.25 μM)) turned out to be 3 µM. Moreover, the CC50 in data set [3] (NCI-H661, read-out: LC50 of Pentamidine with Taxol (2 μM)) stood at 7 µM. In addition, the “overall survival compared with best current therapy” value in the data set with metastatic colon cancer is reported as “significantly enhances overall survival”.
